Test results: US20180370927A1, “MICROBIOCIDAL OXADIAZOLE DERIVATIVES” (SYNGENTA PARTICIPATIONS AG, priority 2015, published 2018)
Where two headings read alike, the source gives them in different places.

Key:
[1] = system: Puccinia recondita f. Sp. Tritici; assay: Puccinia recondita f. sp. tritici / wheat / leaf disc curative (brown rust); format: in vivo; settings: foliar, 200 ppm in the applied formulation, wheat leaf segments, curative (applied 1 day after inoculation), assessed 6 to 8 days after application, read-out: disease control compared to untreated control leaf disks
Procedure: (§1) Leaf disks or leaf segments of various plant species are cut from plants grown in a greenhouse. The cut leaf disks or segments are placed in multiwell plates (24-well format) onto water agar. The leaf disks are sprayed with a test solution before (preventative) or after (curative) inoculation. Compounds to be tested are prepared as DMSO solutions (max. 10 mg/mL) which are diluted to the appropriate concentration with 0.025% Tween20 just before spraying. The inoculated leaf disks or segments are incubated under defined conditions (temperature, relative humidity, light, etc.) according to the respective test system. A single evaluation of disease level is carried out 3 to 14 days after inoculation, depending on the pathosystem. Percent disease control relative to the untreated check leaf disks or segments is then calculated.
Example 2: Fungicidal Activity Against Puccinia recondita f. Sp. Tritici/Wheat/Leaf Disc Curative (Brown Rust)
Wheat leaf segments cv. Kanzler are placed on agar in multiwell plates (24-well format). The leaf segments are then inoculated with a spore suspension of the fungus. Plates were stored in darkness at 19° C. and 75% relative humidity. The formulated test compound diluted in water was applied 1 day after inoculation. The leaf segments were incubated at 19° C. and 75% relative humidity under a light regime of 12 hours light/12 hours darkness in a climate cabinet and the activity of a compound was assessed as percent disease control compared to untreated when an appropriate level of disease damage appears in untreated check leaf segments (6 to 8 days after application).
(§2) The following compounds at 200 ppm in the applied formulation give at least 80% disease control in this test when compared to untreated control leaf disks under the same conditions, which show extensive disease development.

[2] = system: Glomerella lacenarium (Colletotrichum lacenarium); assay: Glomerella lacenarium (Colletotrichum lacenarium) liquid culture / cucumber / preventative (anthracnose); format: cell-based; settings: read-out: disease control (inhibition of growth, photometric) compared to untreated control
Procedure: Mycelia fragments or conidia suspensions of a fungus prepared either freshly from liquid cultures of the fungus or from cryogenic storage, are directly mixed into nutrient broth. DMSO solutions of the test compound (max. 10 mg/ml) are diluted with 0.025% Tween20 by a factor of 50 and 10 μL of this solution is pipetted into a microtiter plate (96-well format). The nutrient broth containing the fungal spores/mycelia fragments is then added to give an end concentration of the tested compound. The test plates are incubated in the dark at 24° C. and 96% relative humidity. The inhibition of fungal growth is determined photometrically after 2 to 7 days, depending on the pathosystem, and percent antifungal activity relative to the untreated check is calculated.
Example 4: Fungicidal Activity Against Glomerella lacenarium (Colletotrichum lacenarium) Liquid Culture/Cucumber/Preventative (Anthracnose)
Conidia of the fungus from cryogenic storage are directly mixed into nutrient broth (PDB—potato dextrose broth). After placing a (DMSO) solution of test compound into a microtiter plate (96-well format), the nutrient broth containing the fungal spores is added. The test plates are incubated at 24° C. and the inhibition of growth is measured photometrically 3 to 4 days after application.
The following compounds at 20 ppm in the applied formulation give at least 80% disease control in this test when compared to untreated control under the same conditions, which show extensive disease development.

[3] = system: Puccinia recondita f. Sp. Tritici; assay: Puccinia recondita f. sp. tritici / wheat / leaf disc preventative (brown rust); format: in vivo; settings: foliar, read-out: disease control compared to untreated control leaf disks
Procedure: as §1
Example 1: Fungicidal Activity Against Puccinia recondita f. Sp. Tritici/Wheat/Leaf Disc Preventative (Brown Rust)
Wheat leaf segments cv. Kanzler were placed on agar in multiwell plates (24-well format) and sprayed with the formulated test compound diluted in water. The leaf disks were inoculated with a spore suspension of the fungus 1 day after application. The inoculated leaf segments were incubated at 19° C. and 75% relative humidity (rh) under a light regime of 12 hours light/12 hours darkness in a climate cabinet and the activity of a compound was assessed as percent disease control compared to untreated when an appropriate level of disease damage appears in untreated check leaf segments (7 to 9 days after application).
as §2

[4] = 20 ppm in the applied formulation, liquid culture in PDB, 24° C., 3 to 4 days after application
[5] = 200 ppm in the applied formulation, wheat leaf segments, preventative, assessed 7 to 9 days after application

Compound | pest or weed control at 200 ppm [1] [%] | inhibition at 20 ppm [2, 4] [%] | pest or weed control at 200 ppm [3, 5] [%] | inhibition at 20 ppm [2] [%] | pest or weed control at 200 ppm [3] [%]
CCC(C)N(Cc1ccc(-c2noc(C(F)(F)F)n2)cc1)C(=O)C(N)=O (centres unmarked) [Compound 4.13, N′-sec-butyl-N′-[[4-[5-(trifluoromethyl)-1,2,4-oxadiazol-3-yl]phenyl]methyl] oxamide] | ≥ 80 | ≥ 80 | ≥ 80 |  | 
CCCONC(=O)C(=O)NCc1ccc(-c2noc(C(F)(F)F)n2)cc1 [Compound 4.42, N′-propoxy-N-[[4-[5-(trifluoromethyl)-1,2,4-oxadiazol-3-yl]phenyl]methyl] oxamide] | ≥ 80 | ≥ 80 | ≥ 80 |  | 
CON(Cc1ccc(-c2noc(C(F)(F)F)n2)cc1)C(=O)C(=O)NCC(C)(C)C [Compound 4.62, N-(2,2-dimethylpropyl)-N′-methoxy-N′-[[4-[5-(trifluoromethyl)-1,2,4-oxadiazol-3-yl]phenyl]methyl] oxamide] | ≥ 80 | ≥ 80 | ≥ 80 |  | 
CCC(C)NC(=O)C(=O)N(Cc1ccc(-c2noc(C(F)(F)F)n2)cc1)OC (centres unmarked) [Compound 4.61, N′-methoxy-N-sec-butyl-N′-[[4-[5-(trifluoromethyl)-1,2,4-oxadiazol-3-yl]phenyl]methyl] oxamide] | ≥ 80 | ≥ 80 | ≥ 80 |  | 
CC(=O)C(=O)NCc1ccc(-c2noc(C(F)(F)F)n2)cc1F [Compound 1.26, N-[[2-fluoro-4-[5-(trifluoromethyl)-1,2,4-oxadiazol-3-yl]phenyl]methyl]-2-oxo-propanamide] | ≥ 80 | ≥ 80 | ≥ 80 |  | 
CC(=O)C(=O)NCc1ccc(-c2noc(C(F)(F)F)n2)c(F)c1F [Compound 1.27, N-[[2,3-difluoro-4-[5-(trifluoromethyl)-1,2,4-oxadiazol-3-yl]phenyl]methyl]-2-oxo-propanamide] | ≥ 80 | ≥ 80 | ≥ 80 |  | 
COC(=O)C(=O)N(Cc1ccc(-c2noc(C(F)(F)F)n2)cc1)OC [Compound 3.2, methyl 2-[methoxy-[[4[5-(trifluoromethyl)-1,2,4-oxadiazol-3-yl]phenyl]methyl]amino]-2-oxo-acetate] | ≥ 80 | ≥ 80 | ≥ 80 |  | 
CONC(=O)C(=O)N(C)Cc1ccc(-c2noc(C(F)(F)F)n2)cc1 [Compound 4.102, N-methoxy-N′-methyl-N′-[[4-[5-(trifluoromethyl)-1,2,4-oxadiazol-3-yl]phenyl]methyl] oxamide] | ≥ 80 | ≥ 80 | ≥ 80 |  | 
CC(=O)C(=O)NCc1ccc(-c2noc(C(F)(F)F)n2)c(F)c1 [Compound 1.25, N-[[3-fluoro-4-[5-(trifluoromethyl)-1,2,4-oxadiazol-3-yl]phenyl]methyl]-2-oxo-propanamide] | ≥ 80 | ≥ 80 | ≥ 80 |  | 
NC(=O)C(=O)N(Cc1ccc(-c2noc(C(F)(F)F)n2)cc1)CC1CCCO1 (centres unmarked) [Compound 4.14, N′-(tetrahydrofuran-2-ylmethyl)-N′-[[4-[5-(trifluoromethyl)-1,2,4-oxadiazol-3-yl]phenyl]methyl] oxamide] | ≥ 80 | ≥ 80 | ≥ 80 |  | 
CON(Cc1ccc(-c2noc(C(F)(F)F)n2)cc1)C(=O)C(=O)O [Compound 3.7, 2-[methoxy-[[4-[5-(trifluoromethyl)-1,2,4-oxadiazol-3-yl]phenyl]methyl]amino]-2-oxo-acetic acid] | ≥ 80 | ≥ 80 |  |  | 
COCCN(Cc1ccccc1)C(=O)C(=O)Nc1ccc(-c2noc(C(F)(F)F)n2)cc1 [Compound 4.15] |  | ≥ 80 | ≥ 80 |  | 
CCON(C)C(=O)C(=O)NCc1ccc(-c2noc(C(F)(F)F)n2)cc1 [Compound 4.43, N′-ethoxy-N′-methyl-N-[[4-[5-(trifluoromethyl)-1,2,4-oxadiazol-3-yl]phenyl]methyl] oxamide] |  | ≥ 80 | ≥ 80 |  | 
CC(C)CC(=O)C(=O)NCc1c(F)cc(-c2noc(C(F)(F)F)n2)cc1F [Compound 1.69, N-[[2,6-difluoro-4-[5-(trifluoromethyl)-1,2,4-oxadiazol-3-yl]phenyl]methyl]-4-methyl-2-oxo-pentanamide] |  | ≥ 80 | ≥ 80 |  | 
C=CCNC(=O)C(=O)NCc1ccc(-c2noc(C(F)(F)F)n2)cc1 [Compound 4.57, N-allyl-N′-[[4-[5-(trifluoromethyl)-1,2,4-oxadiazol-3-yl]phenyl]methyl] oxamide] |  | ≥ 80 | ≥ 80 |  | 
CO/N=C(\C#N)C(=O)N(Cc1ccc(-c2noc(C(F)(F)F)n2)cc1)C1CC1 [Compound 2.15, (1E)-2-[cyclopropyl-[[4-[5-(trifluoromethyl)-1,2,4-oxadiazol-3-yl]phenyl]methyl]amino]-N-methoxy-2-oxo-acetimidoyl cyanide] |  |  |  | ≥ 80 | ≥ 80
O=C(NCc1ccc(-c2noc(C(F)(F)F)n2)cc1)C(=O)NCc1ccco1 [Compound 4.60, N′-(2-furylmethyl)-N-[[4-[5-(trifluoromethyl)-1,2,4-oxadiazol-3-yl]phenyl]methyl] oxamide] |  | ≥ 80 | ≥ 80 |  | 
CN(C)C(=O)C(=O)Nc1ccc(-c2noc(C(F)(F)F)n2)cn1 [Compound 4.10, N′,N′-dimethyl-N-[5-[5-(trifluoromethyl)-1,2,4-oxadiazol-3-yl]-2-pyridyl] oxamide] | ≥ 80 |  | ≥ 80 |  | 
NC(=O)C(=O)N(Cc1ccc(-c2noc(C(F)(F)F)n2)cc1)Cc1ccco1 [Compound 4.24, N′-(2-furylmethyl)-N′-[[4-[5-(trifluoromethyl)-1,2,4-oxadiazol-3-yl]phenyl]methyl] oxamide] |  | ≥ 80 | ≥ 80 |  | 
CCCC(=O)C(=O)N(Cc1ccc(-c2noc(C(F)(F)F)n2)cc1)CC1CCCO1 (centres unmarked) [Compound 1.13, 2-oxo-N-(tetrahydrofuran-2-ylmethyl)-N-[[4-[5-(trifluoromethyl)-1,2,4-oxadiazol-3-yl]phenyl]methyl]pentanamide] |  | ≥ 80 | ≥ 80 |  | 
CC(C)(CS(C)(=O)=O)NC(=O)C(=O)Nc1ccc(-c2noc(C(F)(F)F)n2)cc1 [Compound 4.17] | ≥ 80 |  | ≥ 80 |  | 
NC(=O)C(=O)N(Cc1ccc(-c2noc(C(F)(F)F)n2)cc1)OCC=C(Cl)Cl [Compound 4.32, N′-(3,3-dichloroallyloxy)-N′-[[4-[5-(trifluoromethyl)-1,2,4-oxadiazol-3-yl]phenyl]methyl] oxamide] |  | ≥ 80 | ≥ 80 |  | 
CON(Cc1ccc(-c2noc(C(F)(F)F)n2)cc1)C(=O)C(=O)NC1CCCCC1 [Compound 4.63, N-cyclohexyl-N′-methoxy-N′-[[4-[5-(trifluoromethyl)-1,2,4-oxadiazol-3-yl]phenyl]methyl] oxamide] |  | ≥ 80 | ≥ 80 |  | 
